From patent US20210251228A1, “METHODS FOR REPELLING DROSOPHILA SPECIES USING 2-PENTYLFURAN” (The United States of America, as represented by the …, priority 2020, published 2021)

Assays:
[1] = system: Drosophila suzukii antennae; assay: Coupled GC-EAD of bread dough headspace volatiles on SWD antennae; details: adult female SWD antennae; adsorbent extract of bread dough; authentic standards 10 ng/μl
Description: Adsorbent Sampling from Bread Dough: The bread dough bait consisted of whole-wheat flour (17.25 g), sugar (2 g), dry active bread yeast (0.325 g), apple cider vinegar (1 ml), and water (25 ml) (Cha, D. H., et al., J. Econ. Entomol., 111: 645-652 (2018a)). Headspace volatiles were collected from 10 g bread dough ball placed in a screened specimen cup (130 ml) by using 2.41 closed volatile collection chambers (ARS, Inc., Gainesville, Fla.) with one air inlet adapter (7 mm ID) on the top and an outlet adapter (7 mm ID) on the bottom wall. Clean air from a filtering and delivery system (ARS Inc., Gainesville, Fla.) was pushed into the chamber at 0.7 L/min through the top inlet port, and volatiles from the dough were pushed out through volatile traps (activated charcoal adsorbent filters, ORBO™32-small, Supelco Inc., Bellefonte, Pa.) on the bottom of the chamber. An additional ORBO™ filter was used to ensure that no breakthrough occurred. For each sample of dough (2 dough samples total), adsorbent collections were made over a 2-day period at room temperature using the same volatile trap. Volatiles were eluted with 600 μl methylene chloride every 24 h from the filters of a given dough sample and combined across the total of the collecting days (from 2 dough samples). The combined extract was kept at −20° C. and subjected to as chromatography-electroantennographic detection (GC-EAD) and gas chromatography-mass spectrometry (GC-MS) analyses.
Coupled Gas Chromatographic-Electroantennographic Detection (GC-EAD): Coupled GC-EAD analysis was performed as described previously (Cha, D. H., J. Chem. Ecol., 34: 1180-1189 (2008); Cha, D. H., et al., J. Chem. Ecol., 38: 1419-1431 (2012)) using a Hewlett Packard 5890 Series II gas chromatograph equipped with either a non-polar DB-5 ms capillary column (30 m×0.25 mm ID, 0.25 μm film thickness; Agilent Technologies, Wilmington, Del.) or polar DB-WAXetr capillary column (30 m×0.25 mm ID, 0.25 μm film thickness; Agilent Technologies, Wilmington, Del.) in the splitless mode with 1 min sampling time. The oven temperature was programmed at 40° C. for 5 min, then increased by 15° C./min to 250° C., and held for 5 min. Injector and detector temperatures were set at 250° C. Nitrogen gas was the carrier at a flow of 2 ml/min. The column effluent was split 1:1 in the oven via a “Y” glass splitter (Supelco). One arm of the splitter led to the flame ionization detector (FID) (250° C.) and the other to the heated EAD port (250° C.). Whole head preparations were made of individual flies, age 5-9 day, for GC-EAD analysis (Cha et al. 2012). The head was separated from the body and its antennae positioned between two gold wire electrodes immersed in saline filled (Drosophila ringer solution; 46 mmol NaCl, 182 mmol KCl, 3 mmol CaCl2, and 10 mmol Tris HCl at pH 7.2) micropipettes in an acrylic holder. The antennal holder was placed inside a humidified condenser and maintained at 5° C. The output signal from the antenna was amplified by a customized high input impedance DC amplifier and recorded on an HP 3390A integrator.
Chemical Analysis: GC-MS was carried out with an Agilent 5975MS coupled with a Agilent 6890GC equipped with either a DB-5 ms capillary column (30 m×0.25 mm ID, 0.25 μm film thickness; Agilent Technologies, Wilmington, Del.) or DB-WAXetr capillary column (30 m×0.25 mm ID, 0.25 μm film thickness; Agilent Technologies, Wilmington, Del.). Helium was the carrier gas (1.0 ml/min constant flow). The GC temperature program was the same as used for the GC-EAD analyses. The MS transfer-line was held at 260° C., the MS source at 230° C., and the MS quad at 150° C. Mass spectra were taken in EI mode (at 70 eV) in the range from 40 m/z to 350 m/z with a scanning rate of 4.58 scan/s. GC-MS data were processed with the MDS-Chemstation software (Agilent Technologies). […]

[2] = system: Drosophila suzukii; assay: Field test 1: unknown release rate of 2-pentylfuran, SWD oviposition on field raspberries; assay type: in vivo; details: 0.5 ml 50% 2-pentylfuran in mineral oil in vial, 3 days, N=16
Description: Field Test 1: Effect of Unknown Release Rate of 2-Pentylfuran on SWD Oviposition. The objective of this field test was to confirm the repellent activity of 2-pentylfuran under field conditions. This experiment was conducted using a mixed variety planting of fall-bearing raspberries (primocane raspberries) at Cornell AgriTech in Geneva, N.Y. where we randomly assigned 32 fruiting clusters to one of two treatments: 1.5 ml centrifuge vial with 3 mm hole in lid and containing 0.5 ml 50% 2-pentylfuran in 1:1 ratio with mineral oil or vial with mineral oil only (similar to Wallingford et al. 2016a). After three days we collected ripe raspberries from each cluster and monitored SWD emergence over the 2 weeks in the laboratory (25 C, 55% RH, 16:8 L:D).
Statistical Analyses: Trap catch data from multiple-choice assay and two-choice assay were analyzed in a randomized block design with block as a random factor and different EAD-active compounds as a fixed factor using Poisson distribution with log link function and maximum likelihood estimation (Proc Glimmix, SAS Institute, SAS/STAT 9.2 User's Guide, Second Edition, 2009, SAS Institute Inc., Cary, N.C.). […]

CCCCCc1ccco1 [2-pentylfuran]
GC-EAD activity (antennal response) [1]: active
reduction of number of eggs per raspberry fruit [2]: 30%
